Source: US10564167B2, “Method for detecting cells” (FUNDACIÓ INSTITUT DE CIÈNCIES FOTÒNIQUES, priority 2014, dated 2020)

Columns and labels:
Assay type in all cases: cell-based
[1] = tested on: human fibroblast nuclei (hFb); assay: STORM super-resolution imaging of H2B nanodomains / nucleosome clutches in TSA-treated human fibroblasts
Procedure: (§1) Human fibroblasts (hFb) (BJ, Skin Fibroblast, American Type Culture Collection, ATCC® CRL-2522™) were cultured in DMEM supplemented with 10% FBS, 1× Non-essential AA, 1× GlutaMax and 1× penicillin/streptomycin. Human fibroblasts were treated with 300 nM of TSA (TricostatinA, Sigma-Aldrich) solution (TSA-hFbs) in complete growth medium for 24 hours before imaging experiments. Human fibroblasts expressing the Histone H2B-SNAP fusion protein were obtained after drug selection of nucleofected cells with the pSNAP-H2B Plasmid (N91795, New England BioLabs) using the Amaxa Human Dermal Fibroblast Nucleofector Kit (Lonza, VPD-1001).
For the imaging experiments, cells were plated on 8-well Lab-tek 1 coverglass chamber (Nunc) at a seeding density of 20,000-50,000 cells per well, fixed and permeabilized with Methanol-Ethanol (1:1) solution at −20° C. for 6 min or fixed with PFA 4% in PBS for 10 min and then permeabilized with 0.1% v/v Triton X-100 (SIGMA) in PBS for 10 min at room temperature. As the distribution of H2B was independent of the fixation and permeabilization protocols, Methanol-Ethanol (1:1) was preferred to minimize the handling of the sample. […]
For all H2B quantification experiments, primary rabbit polyclonal anti-H2B (ab1790) and the secondary donkey anti-rabbit labeled with Alexa Fluor 405-Alexa Fluor 647 (Invitrogen) pair dyes were used after in vitro characterization using mononucleosome, 12- and 24-nucleosome array labeling.
(§2) STORM imaging was carried out with a commercial STORM microscope system from Nikon Instruments (NSTORM). Laser light at 647 nm was used for exciting Alexa Fluor 647 (Invitrogen) and switching it to the dark state, and laser light at 405 nm was used for reactivating the Alexa Fluor 647 (Invitrogen) fluorescence via an activator dye (Alexa Fluor 405)—facilitated manner. […]

[2] = tested on: H3 acetylation in human fibroblast cells; assay: STORM imaging of H3 acetylation in human fibroblasts before and after TSA; settings: hFbs, 300 nM TSA 24 hours, STORM images
Procedure: as §1
(§3) For the imaging experiments, cells were plated on 8-well Lab-tek 1 coverglass chamber (Nunc) at a seeding density of 20,000-50,000 cells per well, fixed and permeabilized with Methanol-Ethanol (1:1) solution at −20° C. for 6 min or fixed with PFA 4% in PBS for 10 min and then permeabilized with 0.1% v/v Triton X-100 (SIGMA) in PBS for 10 min at room temperature. […]
as §2

[3] = tested on: human fibroblast nuclei (hFb); assay: Multi-color STORM imaging of H2B and H1 co-localization in hFbs and TSA-hFbs; settings: TSA-hFbs (hFbs 61±11%, p=0.028)
Procedure: as §1, §3, §2

CC(/C=C/C(=O)NO)=C\[C@@H](C)C(=O)c1ccc(N(C)C)cc1 [TSA, Trichostatin A]
distributions of number of localizations per nanodomain, nanodomain areas and nanodomain nnds vs hFbs ([1]; TSA-hFbs compared to hFbs, p<10^-3): shifted to lower values
H2B nanodomain density in the nuclear periphery compared to the nuclear interior (enhancement) ([1]; TSA-hFbs, 300 nM TSA 24 hours (untreated hFbs ~25% higher)): ~10%
median number of nucleosomes per clutch ([1]; hFbs treated with 300 nM TSA for 24 hours, converted from H2B localizations by in vitro calibration curve (untreated hFbs ~8)): ~2 nucleosomes
H3 acetylation after TSA treatment [2]: large increase in H3 acetylation
percentage of H2B co-localized with H1 [3]: 42±6%
